Results on three molecules are retold here after US11731969B2, “Crystal polymorph of 8-bromo-2-(1-methylpiperidin-4-ylamino)-4-(4-phenoxyphenylamino)pyrido[4,3-d]pyrimidin-5(6H)-one hydrochloride and method for preparing same” (OSCOTEC INC., priority 2018, dated 2023).

Data set [1] is described as follows: Evaluation of solubility in distilled water (HPLC). The note with it: for Solubility: distilled water, 20 mg/ml added, stirred 2 hours at room temperature (25° C.), filtered, HPLC, hydrochloride; for Solubility as compared with Compound 1 (in words): summary of Table 1. It counts as physicochemical. The procedure: Distilled water was added to 8-bromo-2-(1-methylpiperidin-4-ylamino)-4-(4-phenoxyphenylamino)pyrido[4,3-d]pyrimidin-5(6H)-one hydrochloride (Compound 1) represented by the above Formula 1 and the crystalline form (VI) and the crystalline form (X) obtained in the Examples such that the concentration was 20 mg/ml, which was stirred for 2 hours at room temperature (25° C.) and then filtered. Thereafter, it was diluted 200 times with acetonitrile of a concentration of 50%.

Data set [2] is described as follows: Evaluation of hygroscopicity by dynamic moisture adsorption analyzer (DVS). The format is physicochemical. To be noted: for Hygroscopicity (%): 25° C., DVS, hydrochloride. The procedure:
8-bromo-2-(1-methylpiperidin-4-ylamino)-4-(4-phenoxyphenylamino)pyrido[4,3-d]pyrimidin-5(6H)-one hydrochloride (Compound 1) represented by the above Formula 1 and the crystalline form (VI) obtained in the Examples were measured for hygroscopicity in a relative humidity range of 0% to 90% at 25° C. using a dynamic moisture adsorption analyzer (DVS).

In data set [3] the test system is protein kinase. To be noted: see Korean Laid-open Patent Publication No. 2014-0144709; cited from earlier work.

Counter-ions that a name gives are not always drawn.

Turning to `CN1CCC(Nc2nc(Nc3ccc(Oc4ccccc4)cc3)c3c(=O)[nH]cc(Br)c3n2)CC1` [Compound 1, 8-bromo-2-(1-methylpiperidin-4-ylamino)-4-(4-phenoxyphenylamino)pyrido[4,3-d]pyrimidin-5(6H)-one hydrochloride], the Solubility (as a rule, the dissolved amount per volume that the medium holds) in data set [1] turned out to be 0.25 mg/mL. Moreover, the “Hygroscopicity (%)” value in data set [2] (relative humidity 0.0%) came to 0.001%; in data set [2] (relative humidity 10.0%), 0.655%; in data set [2] (relative humidity 20.0%) it was 1.202%; in data set [2] (relative humidity 30.0%), 1.695%; in data set [2] (relative humidity 40.0%), 2.081%; in data set [2] (relative humidity 50.0%) it was 2.457%. For the same molecule, the “Hygroscopicity (%)” value in data set [2] (relative humidity 60.0%) amounted to 2.823%; in data set [2] (relative humidity 70.0%) it was 3.215%; in data set [2] (relative humidity 80.0%), 3.696%; in data set [2] (relative humidity 90.0%) it was 4.584%. For the same molecule, the “Effect on the activity of protein kinase (in words)” value in data set [3] is given as “has an effect of inhibiting the activity of protein kinase”.

Regarding `CN1CCC(Nc2nc(Nc3ccc(Oc4ccccc4)cc3)c3c(=O)[nH]cc(Br)c3n2)CC1` [Crystalline form (VI), 8-bromo-2-(1-methylpiperidin-4-ylamino)-4-(4-phenoxyphenylamino)pyrido[4,3-d]pyrimidin-5(6H)-one hydrochloride], the Solubility in data set [1] stood at 19.1 mg/mL. Also, the “Solubility as compared with Compound 1 (in words)” value in data set [1] is reported as “improved solubility”. For the same molecule, the “Hygroscopicity (%)” value in data set [2] (relative humidity 0.0%) turned out to be 0.004%; in data set [2] (relative humidity 10.0%), 0.707%; in data set [2] (relative humidity 20.0%), 0.948%; in data set [2] (relative humidity 30.0%) it was 1.132%; in data set [2] (relative humidity 40.0%), 1.280%; in data set [2] (relative humidity 50.0%), 1.419%. Also, the “Hygroscopicity (%)” value in data set [2] (relative humidity 60.0%) came to 1.561%; in data set [2] (relative humidity 70.0%) it was 1.726%; in data set [2] (relative humidity 80.0%), 1.973%; in data set [2] (relative humidity 90.0%), 2.452%. Moreover, the “Hygroscopicity as compared with Compound 1 (in words)” value in data set [2] (summary of Table 2) is recorded as “improved hygroscopicity”.

Turning to `CN1CCC(Nc2nc(Nc3ccc(Oc4ccccc4)cc3)c3c(=O)[nH]cc(Br)c3n2)CC1` [Crystalline form (X), 8-bromo-2-(1-methylpiperidin-4-ylamino)-4-(4-phenoxyphenylamino)pyrido[4,3-d]pyrimidin-5(6H)-one hydrochloride], in data set [1], the Solubility is 17.3 mg/mL and the “Solubility as compared with Compound 1 (in words)” value is listed as “improved solubility”.
